# Results from PubChem BioAssay AID1259407 (Chemical Carcinogenesis Research Information System (CCRIS), 2018).
# Calls of active or inactive are those of the source. The rule behind the calls is not given here.
# Tested on: CCRIS mutagenicity, Ames/micronucleus/aberration tests
# Test: CCRIS mutagenicity studies
# [1] = Test System: AMES SALMONELLA TYPHIMURIUM, Strain/Indicator: TA98, Metabolic Activation: NONE, Method: PREINCUBATION
# [2] = Test System: AMES SALMONELLA TYPHIMURIUM, Strain/Indicator: TA98, Metabolic Activation: NONE, Method: STANDARD PLATE
# [3] = Test System: AMES SALMONELLA TYPHIMURIUM, Strain/Indicator: TA100, Metabolic Activation: NONE, Method: PREINCUBATION
# [4] = Test System: AMES SALMONELLA TYPHIMURIUM, Strain/Indicator: TA100, Metabolic Activation: NONE, Method: STANDARD PLATE
# [5] = Test System: AMES SALMONELLA TYPHIMURIUM, Strain/Indicator: TA102, Metabolic Activation: NONE, Method: PREINCUBATION
# [6] = Test System: AMES SALMONELLA TYPHIMURIUM, Strain/Indicator: TA1535, Metabolic Activation: NONE, Method: STANDARD PLATE
# [7] = Test System: AMES SALMONELLA TYPHIMURIUM, Strain/Indicator: TA1537, Metabolic Activation: NONE, Method: STANDARD PLATE
# [8] = Test System: AMES SALMONELLA TYPHIMURIUM, Strain/Indicator: TA1538, Metabolic Activation: NONE, Method: STANDARD PLATE
compound,measurement,setting,value
O=c1[nH]c(=O)n([C@H]2C[C@H](O)[C@@H](CO)O2)cc1CCCl,mutagenic call,"End Point: IN VITRO MICRONUCLEUS, Test System: V79 CHINESE HAMSTER CELLS, Metabolic Activation: NONE",inactive; negative
same,mutagenic call,"End Point: IN VITRO MICRONUCLEUS, Test System: V79 CHINESE HAMSTER CELLS, Metabolic Activation: RAT, LIVER, S-9, AROCLOR 1254",inactive; negative
same,mutagenic call,"End Point: IN VIVO MICRONUCLEUS, Test System: BONE MARROW POLYCHROMATIC ERYTHROCYTES, Species: MOUSE, Strain/Sex: CD-1/MALE, FEMALE, Route: GAVAGE",inactive; negative
same,mutagenic call,"Test System: AMES SALMONELLA TYPHIMURIUM, Strain/Indicator: TA97, Metabolic Activation: NONE, Method: PREINCUBATION",inactive; negative
same,mutagenic call,"Test System: AMES SALMONELLA TYPHIMURIUM, Strain/Indicator: TA97, Metabolic Activation: RAT, LIVER, S-9, AROCLOR 1254, Method: PREINCUBATION",inactive; negative
same,mutagenic call,[1],inactive; negative
same,mutagenic call,[2],inactive; negative
same,mutagenic call,"Test System: AMES SALMONELLA TYPHIMURIUM, Strain/Indicator: TA98, Metabolic Activation: RAT, LIVER, S-9, AROCLOR 1254, Method: PREINCUBATION",inactive; negative
same,mutagenic call,"Test System: AMES SALMONELLA TYPHIMURIUM, Strain/Indicator: TA98, Metabolic Activation: RAT, LIVER, S-9, AROCLOR 1254, Method: STANDARD PLATE",inactive; negative
same,mutagenic call,[3],inactive; negative
same,mutagenic call,[4],inactive; negative
same,mutagenic call,"Test System: AMES SALMONELLA TYPHIMURIUM, Strain/Indicator: TA100, Metabolic Activation: RAT, LIVER, S-9, AROCLOR 1254, Method: PREINCUBATION",inactive; negative
same,mutagenic call,"Test System: AMES SALMONELLA TYPHIMURIUM, Strain/Indicator: TA100, Metabolic Activation: RAT, LIVER, S-9, AROCLOR 1254, Method: STANDARD PLATE",inactive; negative
same,mutagenic call,[5],inactive; negative
same,mutagenic call,"Test System: AMES SALMONELLA TYPHIMURIUM, Strain/Indicator: TA102, Metabolic Activation: NONE, Method: STANDARD PLATE",active; positive
same,mutagenic call,"Test System: AMES SALMONELLA TYPHIMURIUM, Strain/Indicator: TA102, Metabolic Activation: RAT, LIVER, S-9, AROCLOR 1254, Method: PREINCUBATION",inactive; negative
same,mutagenic call,"Test System: AMES SALMONELLA TYPHIMURIUM, Strain/Indicator: TA102, Metabolic Activation: RAT, LIVER, S-9, AROCLOR 1254, Method: STANDARD PLATE",active; positive
same,mutagenic call,"Test System: AMES SALMONELLA TYPHIMURIUM, Strain/Indicator: TA104, Metabolic Activation: NONE, Method: PREINCUBATION",inactive; negative
same,mutagenic call,"Test System: AMES SALMONELLA TYPHIMURIUM, Strain/Indicator: TA104, Metabolic Activation: RAT, LIVER, S-9, AROCLOR 1254, Method: PREINCUBATION",inactive; negative
same,mutagenic call,"Test System: AMES SALMONELLA TYPHIMURIUM, Strain/Indicator: TA1535, Metabolic Activation: NONE, Method: PREINCUBATION",inactive; negative
same,mutagenic call,[6],active; positive
same,mutagenic call,"Test System: AMES SALMONELLA TYPHIMURIUM, Strain/Indicator: TA1535, Metabolic Activation: RAT, LIVER, S-9, AROCLOR 1254, Method: PREINCUBATION",inactive; negative
same,mutagenic call,"Test System: AMES SALMONELLA TYPHIMURIUM, Strain/Indicator: TA1535, Metabolic Activation: RAT, LIVER, S-9, AROCLOR 1254, Method: STANDARD PLATE",active; positive
same,mutagenic call,"Test System: AMES SALMONELLA TYPHIMURIUM, Strain/Indicator: TA1537, Metabolic Activation: NONE, Method: PREINCUBATION",inactive; negative
same,mutagenic call,[7],inactive; negative
same,mutagenic call,"Test System: AMES SALMONELLA TYPHIMURIUM, Strain/Indicator: TA1537, Metabolic Activation: RAT, LIVER, S-9, AROCLOR 1254, Method: PREINCUBATION",inactive; negative
same,mutagenic call,"Test System: AMES SALMONELLA TYPHIMURIUM, Strain/Indicator: TA1537, Metabolic Activation: RAT, LIVER, S-9, AROCLOR 1254, Method: STANDARD PLATE",inactive; negative
same,mutagenic call,"Test System: AMES SALMONELLA TYPHIMURIUM, Strain/Indicator: TA1538, Metabolic Activation: NONE, Method: PREINCUBATION",inactive; negative
same,mutagenic call,[8],inactive; negative
same,mutagenic call,"Test System: AMES SALMONELLA TYPHIMURIUM, Strain/Indicator: TA1538, Metabolic Activation: RAT, LIVER, S-9, AROCLOR 1254, Method: PREINCUBATION",inactive; negative
same,mutagenic call,"Test System: AMES SALMONELLA TYPHIMURIUM, Strain/Indicator: TA1538, Metabolic Activation: RAT, LIVER, S-9, AROCLOR 1254, Method: STANDARD PLATE",inactive; negative
same,mutagenic call,"Test System: CHINESE HAMSTER V-79, Strain/Indicator: V-79/8-AZAGUANINE, Metabolic Activation: NONE",active; positive
O=S(=O)(O)Oc1c2ccccc2c2ccc3cccc4ccc1c2c43,mutagenic call,[1],inactive; negative
same,mutagenic call,"Test System: AMES SALMONELLA TYPHIMURIUM, Strain/Indicator: TA98, Metabolic Activation: RAT, LUNG, S-9, Method: PREINCUBATION",inactive; negative
CCCCC[N+](=O)[O-],mutagenic call,[1],inactive; negative
same,mutagenic call,"Test System: AMES SALMONELLA TYPHIMURIUM, Strain/Indicator: TA98, Metabolic Activation: RAT, LIVER, S-9, AROCLOR, Method: PREINCUBATION",inactive; negative
same,mutagenic call,[3],inactive; negative
same,mutagenic call,"Test System: AMES SALMONELLA TYPHIMURIUM, Strain/Indicator: TA100, Metabolic Activation: RAT, LIVER, S-9, AROCLOR, Method: PREINCUBATION",inactive; negative
same,mutagenic call,[5],inactive; negative
same,mutagenic call,"Test System: AMES SALMONELLA TYPHIMURIUM, Strain/Indicator: TA102, Metabolic Activation: RAT, LIVER, S-9, AROCLOR, Method: PREINCUBATION",inactive; negative
same,mutagenic call,"Test System: UDS RAT HEPATOCYTES, Strain/Indicator: THY INCORP, Metabolic Activation: NONE",inactive; negative
CCCCCCN=[N+]=[N-],mutagenic call,"Test System: Ames Salmonella typhimurium, Strain/Indicator: TA100, Metabolic Activation: None, Method: Preincubation",inactive; negative
same,mutagenic call,"Test System: Ames Salmonella typhimurium, Strain/Indicator: TA100, Metabolic Activation: Rat, Liver, S-9, Aroclor 1254, Method: Preincubation",active; positive
ClCC(CCl)(CCl)CCl,mutagenic call,"Test System: AMES SALMONELLA TYPHIMURIUM, Strain/Indicator: TA97, Metabolic Activation: NONE, Method: STANDARD PLATE",inactive; negative
same,mutagenic call,[2],inactive; negative
same,mutagenic call,"Test System: AMES SALMONELLA TYPHIMURIUM, Strain/Indicator: TA98, Metabolic Activation: RAT, LIVER, S-9, AROCLOR, Method: STANDARD PLATE",inactive; negative
same,mutagenic call,[4],inactive; negative
same,mutagenic call,"Test System: AMES SALMONELLA TYPHIMURIUM, Strain/Indicator: TA100, Metabolic Activation: RAT, LIVER, S-9, AROCLOR, Method: STANDARD PLATE",inactive; negative
same,mutagenic call,[6],inactive; negative
same,mutagenic call,[7],inactive; negative
same,mutagenic call,[8],inactive; negative
same,mutagenic call,"Test System: AMES SALMONELLA TYPHIMURIUM, Strain/Indicator: TA2637, Metabolic Activation: NONE, Method: STANDARD PLATE",inactive; negative
